Results: patent US20140309172A1, “ICE INHIBITING COMPOUNDS AND USES THEREOF” (priority 2010, published 2014)

What was measured:
[1] = Preliminary tests of blood-brain barrier penetration in animals; assay type: in vivo
[2] = tested on: M17 cells overexpressing alpha-synuclein; test: Cell viability of M17 cells overexpressing alpha-synuclein (LIVE/DEAD assay); assay type: cell-based, human
Source text: Humans have 28 calpain and caspase isozymes—a large but not impossible number to test. RNAi was used to knock down each of these in turn in a neuronal cell culture model of PD. It is a neuroblastoma cell line (BE(2)-M17) carrying a wild-type α-synuclein overexpressing vector. BE(2)-M17 is a clone of the SK-N-BE(2) cell line that was established in November of 1972 from a bone marrow biopsy taken from a child with neuroblastoma. Synuclein on its own is not toxic to these cells, but it is toxic when combined with an oxidative stress agent such as rotenone or menadione. Greater than 90% reduction of mRNA levels for each of the 29 protease genes was routinely achieved, and greater than 50% reduction in protein levels (typically, about 70% reduction) was routinely achieved.
A cell viability assay was performed using LIVE/DEAD (molecular probes) assay according to the manufacture instructions. As summarized in FIG. 10, both RNAi knockdown of caspase-1/ICE and treatment with the caspase-1/ICE inhibitor block synuclein fragment formation in nerve cells and should inhibit synuclein aggregation in neuronal cells derived from one or more mouse models of PD.

[3] = tested on: M17 cells carrying empty pcDNA3 vector; test: Cell viability of M17 cells with pcDNA3 empty vector in the presence of menadione; assay type: cell-based, human; details: low concentrations of menadione, FIG. 8

| SMILES | BBB penetration [1] | rescue from alpha-synuclein-induced toxicity (cell viability) ([2]; M17 cells overexpressing alpha-synuclein, FIG. 10) | toxicity to M17 cells overexpressing a-synuclein ([2]; low concentrations of menadione, FIG. 8) | toxicity to M17 cells carrying empty pcDNA3 vector [3] |
| --- | --- | --- | --- | --- |
| CC(C)(C)[C@H](NC(=O)c1ccc(N)c(Cl)c1)C(=O)N1CCC[C@H]1C(=O)N[C@H](C#N)CC(=O)O [NCGC00185682] | low |  |  |  |
| CCO[C@@H]1OC(=O)C[C@@H]1NC(=O)[C@@H]1CCCN1C(=O)[C@@H](NC(=O)c1ccc(N)c(Cl)c1)C(C)(C)C [VX-765] | low | rescued |  |  |
| CC1=CC(=O)c2ccccc2C1=O [menadione] |  |  | toxic | not toxic |
